Columns and labels:
[1] = tested on: CB MNCs; test: Reprogramming of cultured cord blood mononuclear cells by EBNA1/OriP plasmids; assay type: cell-based, human; conditions: added to pEB-C5
Description: After thawing, frozen MNCs from CB and PB) were cultured in the SFM supplemented with the following cytokines and a hormone: SCF (50 ng/ml), IL-3 (10 ng/ml), EPO (2U/ml, R&D Systems), IGF-1 (40 ng/ml) and dexamethasone (1 uM, Sigma). The media were replenished at day 3 and 6. By day 8-9 when an overt sign of cell division was observed, cells were harvested for nucleofection as well for various analyses. Approximately 3.5-fold cells were obtained for CB at day 8 and 1.5-fold for PB MNC at day 9. After optimizing nucleofection of the cultured MNCs to achieve maximal cell survival and gene transfer, the inventor settled down with the same Human CD34 Cell solution [Nucleofector Kit VPA-1003] but with 2×10^6 cultured cells. The transfected MNCs were cultured in the same medium for days and then further reprogrammed on MEF feeder cells as described above with cultured CD34+ cells. […]
TRA-1-60 Live Staining for identifying fully reprogrammed clones: TRA-1-60 antibody (mouse IgM, used as 1:300 of MAB4360, Millipore) and Alexa555-conjugated anti-mouse IgM secondary antibody (1:500, Invitrogen) were diluted in ESC medium and added into reprogramming cell culture plates. […] TRA-1-60 positive colonies were identified under an inverted fluorescence microscope, and can be picked up within 1 day after staining for further expansion and characterization.

[2] = tested on: CB CD34+ cells; test: Reprogramming of cord blood CD34+ cells by EBNA1/OriP plasmids, TRA-1-60+ colonies at day 14; assay type: cell-based, human; conditions: NaB 0.25 mM, with either vector combination
Description: In the first set of 3 experiments, the pEB-C5 and pEB-Tg plasmids were used in comparison with the Thomson/Yu combination #6 containing 3 plasmids. After expansion (˜5-flod) with cytokines for 4 days, CB CD34+ cells were transfected once and then cultured following the standard protocol of deriving human iPSCs. […] Transfected cells were cultured for 2 more days before transferring onto 6 wells coated with MEF feeder cells. At day 3, the ESC culture medium was used in the presence or absence of NaB (0.25 mM) or VPA (0.5 mM). After day 9, the MEF-derived conditioned medium (CM) was used to substitute plain ESC medium. […] At day 14, cultures can be stained live with the TRA-1-60 antibody. TRA-1-60+ colonies with ESC-like morphology were picked after counting all the colonies.
After thawing, CD34+ cells were cultured for 4 to 5 days under a serum-free medium (SFM): containing 50% IMDM with 50% Ham's F12 (Invitrogen), ITS supplement (insulin-transferrin-selenium and 5 mg/ml BSA), synthetic lipids, 50 ug/ml of ascorbic acid and 2 mM glutamine (all from Sigma). […]
The cell culture plates with sizable ESC-like colonies were incubated in 37° C. for 1 hour before medium was changed to fresh ESC medium or CM. TRA-1-60 positive colonies were identified under an inverted fluorescence microscope, and can be picked up within 1 day after staining for further expansion and characterization.

CCCC(=O)[O-].[Na+] [NaB, Sodium butyrate]
stimulatory effect on reprogramming [1]: minimal
effect on number (and percentages) of TRA-1-60+ colonies [2]: consistently enhance
